{"source": "patent US11479579B2", "about": "“Therapeutic compounds and methods” (Regents of the University of Minnesota, priority 2018, dated 2022)", "key": {"[1]": {"assay": "Conversion of prodrugs into p-GSH in liver homogenate", "assay_type": "in vitro ADME", "conditions": "liver homogenate with proteinase inhibitors; FIGS. 1 and 2", "experimental": "The conversion of the p-GSH prodrugs, compounds 4 & 9 into p-GSH were studied in liver homogenate. Liver and brain homogenate were selected because they not only are considered as metabolic organs for p-GSH but also the target organs of p-GSH. The homogenate was prepared from fresh liver tissue and proteinase inhibitors were added in order to prevent degradation of metabolic enzymes."}, "Stability in plasma": {"assay": "Stability in plasma", "assay_type": "in vitro ADME", "conditions": "for Stability in plasma compared with p-GSH: summary in words of Table 1", "experimental": "(§1) Compounds 4 and 9 were tested in for stability in the gastrointestinal tract and plasma."}, "[2]": {"assay": "Stability in GI tract (gastric and intestinal phase)", "assay_type": "in vitro ADME", "conditions": "for Stability in the GI tract compared with p-GSH: summary in words of Table 1", "experimental": "as §1"}, "glyoxalase-I": {"target": "T1, glyoxalase-I (Homo sapiens, UniProt Q04760)", "T1 sequence (Q04760 2-184 limits assumed)": "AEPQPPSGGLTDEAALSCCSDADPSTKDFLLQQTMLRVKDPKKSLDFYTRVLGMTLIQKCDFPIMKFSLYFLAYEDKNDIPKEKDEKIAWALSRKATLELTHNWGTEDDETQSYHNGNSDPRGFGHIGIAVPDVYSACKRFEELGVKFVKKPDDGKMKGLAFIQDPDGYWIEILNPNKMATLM", "conditions": "previous studies (More, Vince 2012); cited from earlier work"}, "[3]": {"test_system": "acetaminophen (ACP) toxicity", "conditions": "cited from earlier work"}, "[4]": {"test_system": "amyloid-β induced neurotoxicity", "conditions": "certain earlier data; cited from earlier work"}, "[5]": {"test_system": "transgenic Alzheimer's mice", "conditions": "certain earlier data; cited from earlier work"}}, "data": [{"smiles": "CC(=O)SC[C@H](NC(=O)NC[C@H](N)C(=O)O)C(=O)NCC(=O)O", "note": "[Compound 4]", "values": [{"measurement": "Conversion into parent compound p-GSH", "setting": "[1]", "result": "can be converted into parent compound p-GSH"}, {"measurement": "Stability in plasma", "setting": "Stability in plasma", "result": 5.8, "unit": "h"}, {"measurement": "Stability in plasma compared with p-GSH", "setting": "Stability in plasma", "result": "more stable in plasma"}, {"measurement": "Stability in GI tract, Gastric Phase", "setting": "[2]", "result": ">24", "unit": "h"}, {"measurement": "Stability in GI tract, Intestinal Phase", "setting": "[2]", "result": 5.1, "unit": "h"}, {"measurement": "Stability in the GI tract compared with p-GSH", "setting": "[2]", "result": "more stable than p-GSH in the GI tract"}]}, {"smiles": "CCOC(=O)SC[C@H](NC(=O)NC[C@H](N)C(=O)O)C(=O)NCC(=O)O", "note": "[Compound 9]", "values": [{"measurement": "Conversion into parent compound p-GSH", "setting": "[1]", "result": "can be converted into parent compound p-GSH"}, {"measurement": "Stability in plasma", "setting": "Stability in plasma", "result": 80, "unit": "h"}, {"measurement": "Stability in plasma compared with p-GSH", "setting": "Stability in plasma", "result": "more stable in plasma"}, {"measurement": "Stability in GI tract, Gastric Phase", "setting": "[2]", "result": ">24", "unit": "h"}, {"measurement": "Stability in GI tract, Intestinal Phase", "setting": "[2]", "result": 7.7, "unit": "h"}, {"measurement": "Stability in the GI tract compared with p-GSH", "setting": "[2]", "result": "more stable than p-GSH in the GI tract"}]}, {"smiles": "N[C@@H](CNC(=O)N[C@@H](CS)C(=O)NCC(=O)O)C(=O)O", "note": "[p-GSH]", "values": [{"measurement": "Substrate property for glyoxalase-I", "setting": "glyoxalase-I", "result": "stable substrate"}, {"measurement": "Rescue agent against acetaminophen (ACP) toxicity", "setting": "[3]", "result": "useful as rescue agent"}, {"measurement": "Effect on amyloid-β induced neurotoxicity", "setting": "[4]", "result": "reduced the amyloid-β induced neurotoxicity"}, {"measurement": "Effect on cognitive decline", "setting": "[5]", "result": "prevented cognitive decline"}, {"measurement": "Stability in plasma", "setting": "Stability in plasma", "result": 0.0433, "unit": "h"}, {"measurement": "Stability in GI tract, Gastric Phase", "setting": "[2]", "result": ">24", "unit": "h"}, {"measurement": "Stability in GI tract, Intestinal Phase", "setting": "[2]", "result": 1.3, "unit": "h < 4 h"}]}]}
